Key:
5-HT2A receptors = 5-HT2A receptors (Rattus norvegicus, UniProt P14842); assay: in-vitro affinity to 5-HT2A receptors, displacement of [3H]ketanserine (Example A1); assay type: binding; conditions: read-out: HT2A IC50
Description: The 5-HT2A receptors are exposed both to [^3H]ketanserine (a substance which is known for its affinity to the receptor) and also to the test compound. The decrease in the affinity of [^3H]ketanserine to the receptor is an indication of the affinity of the test substance to the 5-HT2A receptor.

5 HT2C receptor = target: T1, 5 HT2C receptor (Homo sapiens, UniProt P28335); assay: affinity to the 5 HT2C receptor; assay type: binding
T1 sequence (P28335 33-458): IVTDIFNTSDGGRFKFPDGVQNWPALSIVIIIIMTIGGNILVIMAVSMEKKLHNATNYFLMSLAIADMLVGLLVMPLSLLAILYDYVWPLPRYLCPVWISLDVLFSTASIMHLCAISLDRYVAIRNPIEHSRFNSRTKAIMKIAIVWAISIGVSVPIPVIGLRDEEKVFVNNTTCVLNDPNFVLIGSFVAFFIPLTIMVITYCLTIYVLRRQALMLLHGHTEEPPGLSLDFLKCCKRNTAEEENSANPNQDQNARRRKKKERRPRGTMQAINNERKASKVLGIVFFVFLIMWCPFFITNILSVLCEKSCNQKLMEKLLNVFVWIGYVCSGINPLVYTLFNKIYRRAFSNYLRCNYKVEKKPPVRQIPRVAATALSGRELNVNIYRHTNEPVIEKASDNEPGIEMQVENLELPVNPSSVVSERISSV

Sequence of 5-HT2A receptors (P14842 whole entry): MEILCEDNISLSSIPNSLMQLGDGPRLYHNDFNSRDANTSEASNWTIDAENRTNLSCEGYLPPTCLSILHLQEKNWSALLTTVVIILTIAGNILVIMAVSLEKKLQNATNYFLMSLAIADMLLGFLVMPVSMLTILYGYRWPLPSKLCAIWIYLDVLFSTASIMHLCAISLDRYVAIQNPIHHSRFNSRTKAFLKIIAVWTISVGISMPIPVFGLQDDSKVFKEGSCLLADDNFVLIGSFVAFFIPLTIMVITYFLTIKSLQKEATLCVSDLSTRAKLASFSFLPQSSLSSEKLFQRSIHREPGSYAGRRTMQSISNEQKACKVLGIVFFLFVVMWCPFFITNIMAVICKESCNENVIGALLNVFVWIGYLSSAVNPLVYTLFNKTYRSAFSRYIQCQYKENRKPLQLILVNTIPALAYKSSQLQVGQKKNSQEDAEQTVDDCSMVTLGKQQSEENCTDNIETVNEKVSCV

| SMILES | IC50 (5-HT2A receptors) | IC50 (5 HT2C receptor) |
| --- | --- | --- |
| CN1CCN(Cc2cnn(-c3ccc(-c4ccccc4)cc3)c2-c2ccccc2F)CC1 [Example 926, 1-[1-Biphenyl-4-yl-5-(2-fluoro-phenyl)-1H-pyrazol-4-ylmethyl]-4-methylpiperazine] | 27.3 nM | 600 nM |
| CCN1CCN(Cc2cnn(-c3ccc(-c4ccccc4)cc3)c2-c2ccccc2F)CC1 [Example 927, 1-[1-Biphenyl-4-yl-5-(2-fluoro-phenyl)-1H-pyrazol-4-ylmethyl]-4-ethylpiperazine] | 28 nM | 1000 nM |
| CCN1CCN(CCc2cnn(-c3ccc(-c4ccc(F)cc4)cc3)c2-c2ccccc2F)CC1 [Example 928, 1-Ethyl-4-{2-[1-(4′-fluorobiphenyl-4-yl)-5-(2-fluorophenyl)-1H-pyrazol-4-yl]ethyl}piperazine] | 28 nM | 1300 nM |
| CC(=O)NC1CCN(Cc2cnn(-c3ccc(-c4ccccc4)cc3)c2-c2ccccc2F)C1 (stereo not shown) [Example 929, N-{1-[1-Biphenyl-4-yl-5-(2-fluoro-phenyl)-1H-pyrazol-4-ylmethyl]pyrrolidin-3-yl}acetamide] | 29 nM | 1000 nM |
| COc1cccc(-c2ccc(-n3ncc(CN4CCN(C)CC4)c3-c3ccccc3F)cc2)c1 [Example 930, 1-[5-(2-Fluorophenyl)-1-(3′-methoxy-biphenyl-4-yl)-1H-pyrazol-4-ylmethyl]-4-methyl-piperazine] | 29 nM | 690 nM |
| Fc1ccccc1-c1c(CN2CCCCC2)cnn1-c1ccc(-c2ccccc2)cc1 [Example 931, 1-[1-Biphenyl-4-yl-5-(2-fluorophenyl)-1H-pyrazol-4-ylmethyl]piperidine] | 30 nM | 1000 nM |
| c1ccc(-c2ccc(-n3ncc(CNCc4ccncc4)c3-c3ccccc3)cc2)cc1 [Example 932, (1-Biphenyl-4-yl-5-phenyl-1H-pyrazol-4-yl-methyl)pyridin-4-ylmethylamine] | 31 nM | 1000 nM |
| OCc1cnn(-c2ccc(-c3ccc(F)cc3)cc2)c1-c1ccc(Cl)cc1 [Example 933, [5-(4-Chlorophenyl)-1-(4′-fluoro-biphenyl-4-yl)-1H-pyrazol-4-yl]methanol] | 31 nM | 1000 nM |
| Fc1ccccc1-c1c(CN2CCCC2)cnn1-c1ccc(-c2ccccc2)cc1 [Example 934, 1-Biphenyl-4-yl-5-(2-fluorophenyl)-4-pyrrolidin-1-ylmethyl-1H-pyrazole] | 32 nM | 1000 nM |
| COCCCNCc1cnn(-c2ccc(-c3ccccc3)cc2)c1-c1ccccc1F [Example 935, [1-Biphenyl-4-yl-5-(2-fluorophenyl)-1H-pyrazol-4-ylmethyl]-(3-methoxypropyl)amine] | 34 nM | 1000 nM |
| CN(C)Cc1cnn(-c2ccc(C(F)(F)F)cn2)c1-c1ccccc1F [Example 937, [5-(2-Fluorophenyl)-1-(5-trifluoro-methylpyridin-2-yl)-1H-pyrazol-4-ylmethyl]dimethylamine] | 35 nM | 1000 nM |
| CN1CCN(Cc2cnn(-c3ccc(C(F)(F)F)cn3)c2-c2ccccc2F)CC1 [Example 941, 1-[5-(2-Fluorophenyl)-1-(5-trifluoro-methylpyridin-2-yl)-1H-pyrazol-4-ylmethyl]-4-methyl-piperazine] | 39 nM | 1000 nM |
| Cn1ccnc1CNCc1cnn(-c2ccc(-c3ccccc3)cc2)c1-c1ccccc1 [Example 942, (1-Biphenyl-4-yl-5-phenyl-1H-pyrazol-4-yl-methyl)-(1-methyl-1H-imidazol-2-ylmethyl)-amine] | 39 nM | 1000 nM |
| CC(C)N1CCN(Cc2cnn(-c3ccc(-c4ccc(F)cc4)cc3)c2-c2cccc(Cl)c2)CC1 [Example 943, 1-[5-(3-Chlorophenyl)-1-(4′-fluorobiphenyl-4-yl)-1H-pyrazol-4-ylmethyl]-4-isopropylpiperazine] | 41 nM | 1000 nM |
| Fc1ccccc1-c1c(CN2CCNCC2)cnn1-c1ccc(C(F)(F)F)cc1 [Example 944, 1-[5-(2-Fluorophenyl)-1-(4-trifluoro-methyl-phenyl)-1H-pyrazol-4-ylmethyl]piperazine] | 43 nM | 790 nM |
| O=S1(=O)CCN(Cc2cnn(-c3ccc(-c4ccccc4)cc3)c2-c2ccccc2F)CC1 [Example 945, 4-[1-Biphenyl-4-yl-5-(2-fluorophenyl)-1H-pyrazol-4-ylmethyl]thiomorpholine 1,1-dioxide] | 43 nM | 1000 nM |

| SMILES | IC50 (5-HT2A receptors) | IC50 (5 HT2C receptor) |
| --- | --- | --- |
| CN(C)CCN(C)Cc1cnn(-c2ccc(-c3ccc(F)cc3)cc2)c1-c1ccccc1Cl [Example 946, N-[5-(2-chlorophenyl)-1-(4′-fluoro-biphenyl-4-yl)-1H-pyrazol-4-ylmethyl]-N,N′,N′-trimethyl-ethane-1,2-diamine] | 44 nM | 490 nM |
| CCN1CCCC1CNCc1cnn(-c2ccc(-c3ccccc3)cc2)c1-c1ccccc1F (stereo not shown) [Example 947, [1-Biphenyl-4-yl-5-(2-fluorophenyl)-1H-pyrazol-4-ylmethyl]-(1-ethyl-pyrrolidin-2-yl-methyl)amine] | 46.9 nM | 1000 nM |
| CN1CCN(Cc2cnn(-c3ccc(-c4ccccc4)cc3)c2-c2ccccn2)CC1 [Example 949, 1-(1-Biphenyl-4-yl-5-pyridin-2-yl-1H-pyrazol-4-ylmethyl)-4-methylpiperazine] | 50 nM | 1000 nM |
| CCN(CC)Cc1cnn(-c2ccc(-c3ccc(F)cc3)cc2)c1-c1ccccc1Cl [Example 951, [5-(2-Chlorophenyl)-1-(4′-fluoro-biphenyl-4-yl)-1H-pyrazol-4-ylmethyl]diethylamine] | 53 nM | 1000 nM |
| CN1CCN(Cc2cnn(-c3ccc(-c4ccc(C#N)cc4)cc3)c2-c2ccccc2F)CC1 [Example 952, 4′-[5-(2-Fluorophenyl)-4-(4-methyl-piperazin-1-ylmethyl)pyrazol-1-yl]biphenyl-4-carbonitrile] | 53 nM | 790 nM |
| CN1CCN(Cc2cnn(-c3ccc(-c4cc(F)ccc4F)cc3)c2-c2ccccc2F)CC1 [Example 953, 1-[1-(2′,5′-Difluorobiphenyl-4-yl)-5-(2-fluoro-phenyl)-1H-pyrazol-4-ylmethyl]-4-methyl-piperazine] | 55 nM | 470 nM |
| CC(C)c1ccc(-c2ccc(-n3ncc(CN4CCN(C)CC4)c3-c3ccccc3F)cc2)cc1 [Example 958, 1-[5-(2-Fluorophenyl)-1-(4′-isopropylbiphenyl-4-yl)-1H-pyrazol-4-ylmethyl]-4-methyl-piperazine] | 58.1 nM | 830 nM |
| CN1CCN(Cc2cnn(-c3ccc(-c4ccc(F)c(F)c4)cc3)c2-c2ccccc2F)CC1 [Example 960, 1-[1-(3′,4′-Difluorobiphenyl-4-yl)-5-(2-fluoro-phenyl)-1H-pyrazol-4-ylmethyl]-4-methyl-piperazine] | 60 nM | 340 nM |
| O=C1CCCN1CCCNCc1cnn(-c2ccc(-c3ccccc3)cc2)c1-c1ccccc1F [Example 961, 1-(3-{[1-Biphenyl-4-yl-5-(2-fluoro-phenyl)-1H-pyrazol-4-ylmethyl]amino}propyl)pyrrolidin-2-one] | 64 nM | 1000 nM |
| Fc1ccccc1-c1c(CN2CCc3ccccc3C2)cnn1-c1ccc(-c2ccccc2)cc1 [Example 964, 2-[1-Biphenyl-4-yl-5-(2-fluoro-phenyl)-1H-pyrazol-4-ylmethyl]-1,2,3,4-tetrahydro-iso-quinoline] | 70 nM | 1000 nM |
| CN1CCN(Cc2cnn(-c3ccc(-c4ccc(F)cc4)cc3)c2-c2ccccc2Cl)CC1 [Example 965, 1-[5-(2-Chlorophenyl)-1-(4′-fluoro-biphenyl-4-yl)-1H-pyrazol-4-ylmethyl]-4-methylpiperazine] | 72 nM | 600 nM |
| Fc1ccccc1-c1c(CNCc2nc3ccccc3[nH]2)cnn1-c1ccc(-c2ccccc2)cc1 [Example 969, (1H-Benzoimidazol-2-ylmethyl)-[1-biphenyl-4-yl-5-(2-fluorophenyl)-1H-pyrazol-4-ylmethyl]-amine] | 76 nM | 1000 nM |
| CC(C)(C)OC(=O)N1CCN(Cc2cnn(-c3ccc(-c4ccccc4)cc3)c2-c2ccccc2F)CC1 [Example 971, tert-Butyl 4-[1-biphenyl-4-yl-5-(2-fluoro-phenyl)-1H-pyrazol-4-ylmethyl]piperazine-1-carboxylate] | 82 nM | 1000 nM |
| CCN1CCN(Cc2cnn(-c3ccc(-c4ccc(F)cc4)cc3)c2-c2ccccc2Cl)CC1 [Example 975, 1-[5-(2-Chlorophenyl)-1-(4′-fluoro-biphenyl-4-yl)-1H-pyrazol-4-ylmethyl]-4-ethylpiperazine] | 88 nM | 1000 nM |
| CN1CCN(Cc2cnn(-c3ccc(-c4ccccc4F)cc3)c2-c2ccccc2F)CC1 [Example 976, 1-[1-(2′-Fluorobiphenyl-4-yl)-5-(2-fluoro-phenyl)-1H-pyrazol-4-ylmethyl]-4-methyl-piperazine] | 93 nM | 371 nM |
| CN1CC2CC1CN2Cc1cnn(-c2ccc(-c3ccccc3)cc2)c1-c1ccccc1F (stereo not shown) [Example 977, 2-[1-Biphenyl-4-yl-5-(2-fluorophenyl)-1H-pyrazol-4-ylmethyl]-5-methyl-2,5-diazabicyclo-[2.2.1]heptane] | 94 nM | 680 nM |

Source: US20060264419A1 (priority 2003, published 2006)
